According to the CheMixHub viscosity set:
Several values for one entry are separate records, joined by “and”; a condition that tells them apart may be missing. Identical values can stand only once.

Assay: xn = mol fraction of the nth substance listed

CCCCCCCCCCO + CCOC(C)=O
viscosity [mPa·s], 101.33 kPa
Conditions	x2 = 0.1664	x2 = 0.3099	x2 = 0.4348	x2 = 0.545	x2 = 0.6423	x2 = 0.7293	x2 = 0.8073	x2 = 0.8778	x2 = 0.9418
298.15 K	6.2	3.758	2.442	1.698	1.238	0.936	0.809	0.657	0.521
303.15 K	5.263	3.279	2.171	1.533	1.235	0.864	0.719	0.613	0.497
308.15 K	4.52	2.876	1.935	1.384	1.032	0.796	0.647	0.583	0.477

c1ccc(Oc2ccccc2)cc1 + NCc1ccccc1
303.15 K, 101 kPa
Conditions	viscosity [mPa·s]
x2 = 0.1488	2.696
x2 = 0.2823	2.409
x2 = 0.4028	2.179
x2 = 0.512	1.991
x2 = 0.6114	1.839
x2 = 0.7024	1.714
x2 = 0.786	1.613
x2 = 0.8629	1.531
x2 = 0.934	1.465

CC(C)[C@@H]1CC[C@@H](C)C[C@H]1O + CCCCCCCCCCO
Conditions	viscosity [mPa·s]
298.15 K, 101.33 kPa, x1 = 0.5	21.24

Cc1ccccc1C + CCCCCCO
viscosity, 101 kPa
Conditions	303.15 K	313.15 K	318.15 K	323.15 K
x2 = 0.0999	0.758 mPa·s	0.663 mPa·s	–	0.584 mPa·s
x2 = 0.1	0.7581 mPa·s	0.6626 mPa·s	–	0.5835 mPa·s
x2 = 0.1999	0.852 mPa·s	0.731 mPa·s	–	0.637 mPa·s
x2 = 0.2	0.852 mPa·s	0.7312 mPa·s	0.6825 mPa·s	0.6374 mPa·s
x2 = 0.2999	0.978 mPa·s	0.829 mPa·s	–	0.713 mPa·s
x2 = 0.3	0.9776 mPa·s	0.8292 mPa·s	–	0.7127 mPa·s
x2 = 0.4	1.142 mPa·s	0.9571 mPa·s	–	0.8098 mPa·s
x2 = 0.4001	1.142 mPa·s	0.957 mPa·s	–	0.81 mPa·s
x2 = 0.4997	1.361 mPa·s	1.118 mPa·s	–	0.933 mPa·s
x2 = 0.5	1.361 mPa·s	1.118 mPa·s	–	0.933 mPa·s
x2 = 0.6	1.651 mPa·s and 1.651 mPa·s	1.325 mPa·s and 1.325 mPa·s	–	1.087 mPa·s and 1.087 mPa·s
x2 = 0.7	2.034 mPa·s and 2.034 mPa·s	1.596 mPa·s and 1.596 mPa·s	–	1.284 mPa·s and 1.284 mPa·s
x2 = 0.8	2.532 mPa·s and 2.532 mPa·s	1.951 mPa·s and 1.951 mPa·s	–	1.541 mPa·s and 1.541 mPa·s
x2 = 0.8999	3.141 mPa·s	2.391 mPa·s	–	1.859 mPa·s
x2 = 0.9	3.141 mPa·s	2.391 mPa·s	–	1.859 mPa·s
